Structures can show the parent of a compound that is named as a salt.
What was measured:
[1] = molecular target: T1, proMMP9(20-445;ΔFnII) (SEQ ID NO:6) (Homo sapiens, UniProt P14780, DEL216-390); assay: ThermoFluor binding assay with proMMP9(20-445;ΔFnII)
T1 construct: start methionine (N); made in house; host or cells: E. coli BL21(DE3) RIL
T1 sequence (P14780 with tags, fused parts or gaps DEL216-390): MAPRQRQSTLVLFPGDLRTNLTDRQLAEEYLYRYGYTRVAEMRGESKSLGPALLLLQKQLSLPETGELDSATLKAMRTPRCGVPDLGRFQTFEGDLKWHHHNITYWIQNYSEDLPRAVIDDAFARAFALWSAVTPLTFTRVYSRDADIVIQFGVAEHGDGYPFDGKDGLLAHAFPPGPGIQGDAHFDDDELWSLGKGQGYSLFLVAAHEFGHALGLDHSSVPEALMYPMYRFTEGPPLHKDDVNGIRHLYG
Method in brief: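 Thermal-shift binding using 2.8 μM proMMP9(20-445;ΔFnII) with 50 μM 1,8-ANS in 50 mM HEPES pH 7.0, 100 mM NaCl, 0.001% Tween-20, 2.5 mM MgCl2, 300 μM CaCl2. Compound serially diluted; heated 40–90 °C at 1 °C/min, fluorescence 500 nm. Tm shifts fitted using DSC/ThermoFluor-derived thermodynamic parameters.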

[2] = molecular target: T2, proMMP9(67-444;ΔFnII) (SEQ ID NO:5) (Homo sapiens, UniProt P14780, DEL216-390); assay: ThermoFluor binding assay with proMMP9(67-444;ΔFnII)
T2 construct: start methionine (N); made in house; host or cells: E. coli BL21(DE3) RIL
T2 sequence (P14780 with tags, fused parts or gaps DEL216-390): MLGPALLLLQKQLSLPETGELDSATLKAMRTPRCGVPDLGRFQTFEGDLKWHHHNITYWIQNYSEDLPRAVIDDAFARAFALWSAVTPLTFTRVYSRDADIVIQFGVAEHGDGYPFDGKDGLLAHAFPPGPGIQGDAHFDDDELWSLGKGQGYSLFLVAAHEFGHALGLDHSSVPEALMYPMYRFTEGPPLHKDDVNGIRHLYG
Method in brief: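 Thermal shift with 3.5 μM desalted proMMP9(67-444;ΔFnII) and 50 μM 1,8-ANS in 50 mM HEPES pH 7.0, 100 mM NaCl, 0.001% Tween-20, 2.5 mM MgCl2, 300 μM CaCl2; compounds serially diluted. Heated 40–90 °C at 1 °C/min, fluorescence at 500 nm; Tm fit, binding modelled using DSC-derived thermodynamic parameters.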

[3] = molecular target: T3, proMMP13(1-268) (SEQ ID NO:7) (Homo sapiens, UniProt P45452); assay: ThermoFluor binding assay with proMMP13(1-268)
T3 construct: 6xHis (C); made in house; host or cells: HEK293 (transient, secreted)
Experimental: The ThermoFluor® (TF) assay is a 384-well plate-based binding assay that measures thermal stability of proteins (Biomol Screen 2001, 6, 429-40; Biochemistry 2005, 44, 5258-66). The experiments were carried out using instruments available from Johnson & Johnson Pharmaceutical Research & Development, LLC. TF dye used in all experiments was […] (1,8-ANS) (Invitrogen: A-47).
Compounds were arranged in a pre-dispensed plate (Greiner Bio-one: 781280), wherein compounds were serially diluted in 100% DMSO across 11 columns within a series. Columns 12 and 24 were used as DMSO reference and contained no compound. For multiple compound concentration-response experiments, the compound aliquots ([…]) were robotically predispensed directly into black 384-well polypropylene PCR microplates (Abgene: TF-0384/k) using a Cartesian Hummingbird liquid handler (DigiLab, Holliston, Mass.). Following compound dispense, protein and dye solutions were added to achieve the final assay volume of 3 μL. The assay solutions were overlayed with 1 μL of silicone oil (Fluka, type DC 200: 85411) to prevent evaporation.
Assay plates were robotically loaded onto a thermostatically controlled PCR-type thermal block and then heated from 40 to 90° C. at a ramp-rate of 1° C./min for all experiments. Fluorescence was measured by continuous illumination with UV light (Hamamatsu LC6) supplied via fiber optics and filtered through a band-pass filter (380-400 nm; >60D cutoff). Fluorescence emission of the entire 384-well plate was detected by measuring light intensity using a CCD camera (Sensys, Roper Scientific) filtered to detect 500±25 nm, resulting in simultaneous and independent readings of all 384 wells. A single image with 20-sec exposure time was collected at each temperature, and the sum of the pixel intensity in a given area of the assay plate was recorded vs temperature and fit to standard equations to yield the Tm (J Biomol Screen 2001, 6, 429-40).
Thermodynamic parameters necessary for fitting compound binding for each proMMP were estimated by differential scanning calorimetry (DSC) and from ThermoFluor® data. The heat capacity of unfolding for each protein was estimated from the molecular weight and from ThermoFluor® dosing data.
ThermoFluor® with proMMP13(1-268) (SEQ ID NO: 7)
The proMMP13(1-268) (SEQ ID NO:7) protein sample preparations included a desalting buffer exchange step via a PD-10 gravity column (GE Healthcare). The desalting buffer exchange was performed prior to diluting the protein to the final assay concentration of 3.5 μM. The concentration of proMMP13(1-268) (SEQ ID NO:7) was estimated spectrophotometrically based on a calculated extinction coefficient of ε280=37000 M^−1cm^−1, a calculated molecular weight of 30.8 kDa, and calculated pI of 5.33. ThermoFluor® reference conditions were defined as follows: 100 μg/mL proMMP13(1-268) (SEQ ID NO:7), 25 μM 1,8-ANS, pH 7.0 Buffer (50 mM HEPES pH 7.0, 100 mM NaCl, 0.001% Tween-20, 2.5 mM MgCl2, 300 μM CaCl2). The thermodynamic parameters for proMMP13(1-268) (SEQ ID NO:7) are as follows: Tm (° C.)=67 (+/−0.1), ΔUH(Tm) (cal mol^−1)=107000(+/−5000), ΔUS(Tm) (cal mol^−1 K^−1)=318, ΔUCp (cal mol^−1 K^−1)=2600.

[4] = molecular target: T4, full-length proMMP9(1-707) (SEQ ID NO:1) from COS-1 cells, activation by catalytic MMP3 (Homo sapiens, UniProt P14780, R574P); assay: ProMMP9/MMP3 DQ Gelatin Activation Assay; assay type: biochemical; settings: read-out: ProMMP9/MMP3 DQ gel Activation Assay, IC50
T4 construct: made in house; host or cells: COS-1 (proMMP9, secreted); E. coli (MMP3)
Text: ProMMP9/MMP3 DQ Gelatin Activation Assay

[5] = molecular target: T5, full-length proMMP9(1-707) (SEQ ID NO:1), activation by catalytic MMP3 (Homo sapiens, UniProt P14780, R574P); assay: proMMP9/MMP3 P126 Activation Assay; assay type: biochemical
T5 construct: made in house; host or cells: HEK293 (proMMP9, secreted); E. coli (MMP3)
Experimental: proMMP9/MMP3 P126 Activation Assay
The reaction volume was 50 μL. […] Reactivity of residual MMP3 towards P-126 substrate was minimal under these conditions.

[6] = molecular target: T6, proMMP13(1-268) (SEQ ID NO:7), activation by plasmin (Homo sapiens, UniProt P45452); assay: ProMMP13/Plasmin P126 Activation Assay; assay type: biochemical
T6 construct: 6xHis (C); made in house; host or cells: HEK293 (proMMP13, secreted)
Experimental: ProMMP13/Plasmin P126 Activation Assay
On the day of assay, proMMP13(1-268) (SEQ ID NO:7) purified from HEK293 cells and plasmin were diluted to 160 nM and 320 nM, respectively, in assay buffer. The reaction volume was 50 μL. […] The plate was sealed and incubated for 40 min at 37° C. […] Plasmin was not reactive towards P-126 substrate under these conditions.

T5 sequence (P14780 20-707 R574P): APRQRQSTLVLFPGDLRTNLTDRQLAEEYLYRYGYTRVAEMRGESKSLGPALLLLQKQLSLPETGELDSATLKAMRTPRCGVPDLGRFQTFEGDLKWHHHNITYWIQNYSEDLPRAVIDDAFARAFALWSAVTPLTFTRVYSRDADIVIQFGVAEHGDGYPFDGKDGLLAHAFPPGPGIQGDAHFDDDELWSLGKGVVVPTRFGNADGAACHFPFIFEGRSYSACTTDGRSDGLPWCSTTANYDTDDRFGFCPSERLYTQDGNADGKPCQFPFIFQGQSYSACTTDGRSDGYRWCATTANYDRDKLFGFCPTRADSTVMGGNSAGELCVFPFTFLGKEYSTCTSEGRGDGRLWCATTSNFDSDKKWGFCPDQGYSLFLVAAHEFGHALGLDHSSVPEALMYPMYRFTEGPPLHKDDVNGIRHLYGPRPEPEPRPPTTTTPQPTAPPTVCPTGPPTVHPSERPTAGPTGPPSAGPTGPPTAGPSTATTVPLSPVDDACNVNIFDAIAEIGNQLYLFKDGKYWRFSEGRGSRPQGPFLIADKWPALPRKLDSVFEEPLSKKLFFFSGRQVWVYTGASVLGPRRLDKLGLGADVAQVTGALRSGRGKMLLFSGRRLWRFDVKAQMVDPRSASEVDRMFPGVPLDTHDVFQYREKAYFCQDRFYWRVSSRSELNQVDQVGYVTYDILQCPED
T4 sequence (P14780 20-707 R574P): as above

COc1ccc([N+](=O)[O-])cc1Nc1nc(-c2cccnc2)cs1 [Example 60, (2-Methoxy-5-nitro-phenyl)-(4-pyridin-3-yl-thiazol-2-yl)-amine]
Kd [1]: > 95000 nM | Kd [2]: > 95 µM | Kd [3]: 78000 nM | IC50 [4]: 5.5 µM

CC(C)Oc1ccc(C(N)=O)cc1Nc1nc(-c2ccc(N3CCN(C)CC3)nc2)cs1 [Example 27, 4-Isopropoxy-3-{4-[6-(4-methyl-piperazin-1-yl)-pyridin-3-yl]-thiazol-2-ylamino}-benzamide.TFA]
Kd [1]: 39 nM | Kd [2]: 0.38 µM | Kd [3]: 280 nM | IC50 [5]: 150 nM | IC50 [6]: 900 nM

CC(C)Oc1ccc(C(N)=O)cc1Nc1nc(-c2ccnc(Cl)c2)cs1 [Example 21, 3-[4-(2-Chloro-pyridin-4-yl)-thiazol-2-ylamino]-4-isopropoxy-benzamide.TFA]
Kd [1]: 210 nM | Kd [2]: 4.1 µM | Kd [3]: 1400 nM | IC50 [5]: 600 nM

COc1ccc(S(N)(=O)=O)cc1Nc1nc(-c2cccnc2)cs1 [Example 12, 4-Methoxy-3-(4-pyridin-3-yl-thiazol-2-ylamino)-benzenesulfonamide.TFA]
Kd [1]: 17000 nM | Kd [2]: 29 µM | Kd [3]: > 95000 nM | IC50 [5]: > 20000 nM

Source: patent US20120129843A1, “PYRIDYL-THIAZOLYL INHIBITORS OF PRO-MATRIX METALLOPROTEINASE ACTIVATION” (priority 2010, published 2012)
